The record followed here is patent US20100291012A1, “ADMINISTRATION OF AMOROLFINE BY IONTOPHORESIS FOR TREATING NAIL DISEASES” (GALDERMA S.A., priority 2008, published 2010).

The format of the data set is in vitro ADME. The following applies: for Nail (summary) / Receptor (summary) / Total nail (summary): 10 mM. Here is the method:
The donor solution in experiment 2 consisted of: 0.36% (10 mM) amorolfine HCl in an aqueous solution containing 50 mM NaCl and 0.4% Tween 80. The experiment was performed at pH 3.9 without further adjustment.
The donor solution in experiment 3 consisted of: 0.36% (10 mM) amorolfine HCl in an 40:60 (w:w) Tris buffer:ethanol. The Tris buffer contained 50 mM Tris and 50 mM NaCl at pH 7.4. The pH of the buffer:ethanol solution was ˜7.5. After addition of the drug the pH was ˜5.5.
The donor solution in experiments 4 and 5 consisted of: 1% (28 mM) amorolfine HCl in an 40:60 (w:w) Tris buffer:ethanol. The Tris buffer contained 50 mM Tris and 50 mM NaCl at pH 7.4. The pH of the buffer:ethanol solution was ˜7.5. After addition of the drug the pH was ˜4.7.
Receptor solution: pH 7.4 PBS containing 0.25% Tween 80 (same as Expt. 2).
Diffusion cells: 15 mm diameter Franz diffusion cells were used. The “nail assemblage” was placed in […] the donor and receptor chambers.
Nail device: A nail was glued […] two silicone rings with an internal orifice of 5 mm diameter.
The thickness of the nails was measured with a micrometer. Before hydration nail thickness in the periphery was measured in three places. The central part was not measured at this time to avoid any risk of breaking the nail. The nails were soaked overnight in 50 mM NaCl solution. Because of the increased flexibility of the nail after soaking, it was then possible to measure the thickness in the central part, upper part and lateral corner of the nail (Table 1):
Testing for leaks and iontophoretic circuit: Before starting the iontophoretic experiment, the absence of leaks was tested for each cell. The donor and receptor chambers were filled with donor (without drug) and receptor buffer, respectively, and a 0.1 mA current was passed. In the presence of leaks, the resistance of the circuit is low and the voltage needed to drive the current is very small (˜1V).
The voltages observed at the start of current passage decreased rapidly to settle at (˜30V after approximately 20 minutes.
Once the stability of the circuit with the three cells was assured, the donor compartment was filled with the drug solution and the current re-started.
The intensity of current was 0.1 mA, equivalent to 0.51 mA/cm^2 (area exposed=0.196 cm^2).
One sample was taken after 18 hours of iontophoresis for experiment 2 and 20 hours for experiments 3 and 4. The receptor was then refilled and a passive post-iontophoretic period of 4 hours elapsed before a second sample was obtained.
After recovery of the donor solution, the anode chamber was rinsed twice with ethanol to clean residual solution from the surface of the nail. Then, the nail was cut out of the silicone ring, weighed, dissolved in Soluene®, and assayed for radioactivity.
Experiment 5 is a passive control.

Like-named read-outs stand apart in the source and are kept apart here.

As to `CCC(C)(C)c1ccc(CC(C)CN2C[C@@H](C)O[C@@H](C)C2)cc1` (stereo partly drawn) [Amorolfine, cis-4-[3-[4-(1,1-dimethylpropyl)phenyl]-2-methylpropyl]-2,6-dimethylmorpholine], the “effect of iontophoresis on drug delivery into and through the nail” value was “enhances drug delivery into and trough the nail”; the “flux of amorolfine, comparison of experiments” value is reported as “higher flux”. Under “18 h, pH 3.9”, the “Nail (summary)” value is 5.1 ± 4.3 nmol/mg, the “Receptor (summary)” value is recorded as 2.4 ± 0.5 nmol and the “Total nail (summary)” value is 38 ± 13 nmol. Besides, under “20 h”, the “Nail (summary)” value is reported as 3.2 ± 0.6 nmol/mg, the “Receptor (summary)” value is given as 1.7 ± 0.7 nmol and the “Total nail (summary)” value came out at 28 ± 3.6 nmol.
